Here are results for 3 compounds from patent US12059427B2, “Treatments for cachexia” (YINUOKE MEDICINE SCIENCE AND TECHNOLOGY COMPANY LTD., priority 2018, dated 2024).

Series [1] relates to cachectic Balb/c mice injected with C26 tumor cells. In words: Kaplan-Meier survival analysis of cachectic mice (C26 model). Type of series: in vivo, mouse.
Series [2] shares this test system. In words: Body weight of cachectic mice (C26 cachexia mouse model). Type of series: in vivo.
[3] abbreviates: ~50 day period, two 3-day/one-injection-per-day cycles s.c., 0.3 mg Cytarabine, 0.1 mg Ketorolac or combination vs PBS.
Setting [4] is: 0.3 mg Cytarabine, 0.1 mg Ketorolac or combination (0.3 mg + 0.1 mg) in PBS s.c. on three consecutive days (1 cycle), 8 days observation, vs untreated.

“Also recorded” adds a separate entry of the source.

Take `Nc1ccn([C@@H]2O[C@H](CO)[C@@H](O)[C@@H]2O)c(=O)n1` [Cytarabine, 1-(β-D-Arabinofuranosyl)cytosine]: in series [1] (setting [3]), the “survival (Kaplan-Meier)” value is given as “highly significant increase in survival; also recorded: prolong survival of cachectic mice”. Moreover, the “body weight of cachectic mice” value in series [2] (setting [4]) is on record as “the body weight drop eventually reverses for all treated mice; also recorded: reverse body weight drop in cachectic mice”. Besides, the “transient weight loss after treatment” value in series [2] (days 0-5 after start of treatment, 0.3 mg Cytarabine alone vs combination with 0.1 mg Ketorolac, s.c.) is on record as “transient weight loss seen on days 0-5”.
For the compound `O=C(c1ccccc1)c1ccc2n1CCC2C(=O)O` (stereo not drawn) [Ketorolac, Ketorolac tromethamine], the “survival (Kaplan-Meier)” value in series [1] (setting [3]) is recorded as “finally ketorolac alone”. In series [2] (setting [4]), the “body weight of cachectic mice” value was “the body weight drop eventually reverses for all treated mice; also recorded: reverse body weight drop in cachectic mice”.
Consider `O=C(c1ccccc1)c1ccc2n1CC[C@H]2C(=O)O` [(R)-Ketorolac], for which the “survival (Kaplan-Meier)” value was “prolong survival of cachectic mice” in series [1] (two cycles of daily oral administration, 40 day period, vs PBS vehicle) and “significant efficacy as a single agent increasing the survival of cachectic mice” in series [1] (two cycles of daily oral administration, 40 day period, vs PBS vehicle, listed as (R)-ketorolac). Further, the “body weight of cachectic mice” value in series [2] (0.05 mg orally, three consecutive days per cycle, 6 days/2 cycles, vs PBS) is “reverse body weight drop”; in series [2] (0.05 mg orally, three consecutive days per cycle, 6 days/2 cycles, vs PBS, listed as (R)-ketorolac), “regained body weight after initiation of the treatment and maintained stabilized body weight during the treatment”.
